In patent US10772886B2, “CXCR-2 inhibitors for treating crystal arthropathy disorders” (ARDEA BIOSCIENCES, INC., priority 2016, dated 2020):

Experiments:
[1] = tested on: rat air pouch model of crystal-induced arthropathy (MSU); test: Rat air pouch model of crystal-induced arthropathy, Example 4 (Compound 2); assay type: in vivo
Protocol: Sodium hydroxide (40 g, Fisher Scientific) was dissolved in de-ionized water (100 mL, dH2O) to provide a 10N solution. Uric acid (16 g, Sigma) was added to de-ionized water (3400 mL) containing sodium hydroxide solution (11.8 mL, 10N) and heated to 60° C. with constant stirring. […] The resulting clear solution was cooled to 4-8° C., resulting in the formation of crystals, which were isolated by filtration, washed three times with de-ionized wa[…]) and dried at 37° C. The dried mono sodium urate crystals were sifted into an air-tight container for storage. […] Methylcellulose (0.4 g, Sigma) was dissolved in de-ionized water (100 mL) to provide a 0.4% solution used as vehicle. […] Test compounds were suspended in vehicle to provide the desired concentrations, and diluted accordingly. […] Male Sprague-Dawley rats (Charles River Laboratories, 160-180 g) were received, individually examined and housed in cages of five rats each. The animals were in apparent good health with no clinical signs of disease or distress. The rats were placed in quarantine with daily inspections, ear notched for identification purposes and shaved at the nape of the neck. The rats were anesthetized (isoflurane), and the nape of the neck was cleansed with 70% isopropanol (Butler Animal Health Supply) followed by povidone-iodine solution (Ricca Chemical Co.). […] The rats were returned to routine housing with no adverse reactions observed. The rats were weighed and sorted into treatment groups based on average body weight. As appropriate, the rats were dosed orally with test compound or vehicle (saline alone). […] Thirty minutes after SC injection or two hours after PO dosing, MSU (15 mL) was injected into the air pouch using an 18 G×2 inch needle fitted to a 20 mL syringe. Control group was injected with 15 mL sterile saline (vehicle). The injection sites were closed (collodion, Macron) and the rats returned to their cages with no adverse effects observed. Four hours after MSU/saline injection, the rats were anesthetized and heparinized saline (5 mL, 10 U/mL) was injected into the air pouch. […] An aliquot of the exudate was transferred to green Eppendorf tubes for total white blood cell (WBC) measurement. After allowing the MSU crystals to settle out for ten minutes, an aliquot of the exudate was transferred to heparinized microtainer tubes (Becton Dickinson) for differential white blood cell counts. The remainder of the exudate was centrifuged and an aliquot of the supernatants was dispensed to labeled clear Eppendorf tubes and stored at -80° C. The rats were exsanguinated into pre-chilled serum separator tubes, processed to serum, and 0.5 mL aliquot was stored at -80° C. in labeled Eppendorf tubes. […] [table]

CXCR-2 = target: T1, CXCR-2 (Homo sapiens, UniProt P25025); settings: cited from earlier work
T1 sequence (P25025 1-360): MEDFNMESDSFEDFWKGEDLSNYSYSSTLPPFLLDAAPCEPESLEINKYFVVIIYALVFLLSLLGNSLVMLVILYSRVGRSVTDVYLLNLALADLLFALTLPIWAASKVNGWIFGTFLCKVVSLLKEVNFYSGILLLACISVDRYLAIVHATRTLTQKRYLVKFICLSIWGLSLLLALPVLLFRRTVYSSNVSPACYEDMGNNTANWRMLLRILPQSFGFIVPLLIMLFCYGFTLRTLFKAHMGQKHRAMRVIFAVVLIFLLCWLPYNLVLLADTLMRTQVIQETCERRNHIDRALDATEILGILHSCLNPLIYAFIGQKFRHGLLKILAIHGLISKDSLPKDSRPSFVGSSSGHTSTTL

SMILES: COc1cc2c(c(OC)c1OC)-c1ccc(OC)c(=O)cc1[C@@H](NC(C)=O)CC2 [Colchicine, COLCHICINE, reference compound]
- Avg Exudate Vol ([1]; 1 mg/kg SC, Group 3): ***6.4 mL
- Avg Total WBC ([1]; 1 mg/kg SC, Group 3): **17.6 ×10^6
- Neutrophils ([1]; 1 mg/kg SC, Group 3): **11.0 ×10^6

SMILES: CC[C@@H](Nc1c(Nc2cccc(C(=O)N(C)C)c2O)c(=O)c1=O)c1ccc(C)o1 [Compound 2, (R)-2-hydroxy-N,N-dimethyl-3-((2-((1-(5-methylfuran-2-yl)propyl)amino)-3,4-dioxocyclobut-1-en-1-yl)amino)benzamide]
- Avg Exudate Vol ([1]; 0.3 mg/kg PO, Group 4): 10.1 mL
- Avg Total WBC ([1]; 0.3 mg/kg PO, Group 4): 145.2 ×10^6
- Neutrophils ([1]; 0.3 mg/kg PO, Group 4): 114.2 ×10^6
- Avg Exudate Vol ([1]; 3 mg/kg PO, Group 5): 9.3 mL
- Avg Total WBC ([1]; 3 mg/kg PO, Group 5): *33.4 ×10^6
- Neutrophils ([1]; 3 mg/kg PO, Group 5): *19.8 ×10^6
- Avg Exudate Vol ([1]; 30 mg/kg PO, Group 6): ***6.8 mL
- Avg Total WBC ([1]; 30 mg/kg PO, Group 6): *51.7 ×10^6
- Neutrophils ([1]; 30 mg/kg PO, Group 6): **16.0 ×10^6
- inhibit CXCR-2 (CXCR-2): shown to inhibit CXCR-2

SMILES: C[C@@H](Oc1cc(NS(=O)(=O)N2CCC2)nc(SCc2cccc(F)c2F)n1)[C@@H](O)CO [Compound 3, N-(2-((2,3-difluorobenzyl)thio)-6-(((2R,3S)-3,4-dihydroxybutan-2-yl)oxy)pyrimidin-4-yl)azetidine-1-sulfonamide]
- inhibit CXCR-2 (CXCR-2): shown to inhibit CXCR-2

SMILES: CC1CN(S(=O)(=O)Nc2cc(O[C@H](C)[C@@H](O)CO)nc(SCc3ccc(F)cc3)n2)C1 [Compound 4, N-(6-(((2R,3S)-3,4-dihydroxybutan-2-yl)oxy)-2-((4-fluorobenzyl)thio)pyrimidin-4-yl)-3-methylazetidine-1-sulfonamide]
- inhibit CXCR-2 (CXCR-2): shown to inhibit CXCR-2
